Data as given in ChEMBL document CHEMBL5131445, “Optimization of a novel piperazinone series as potent selective peripheral covalent BTK inhibitors” (Bioorg Med Chem Lett, 2022).
In brackets after ≈: the same amount, converted by molar mass.

Experiments:
[1] = biological target: T1, Tyrosine-protein kinase BTK (Homo sapiens, UniProt Q06187); assay: Inhibition of BTK (unknown origin)
[2] = biological target: Receptor tyrosine-protein kinase erbB-2 (Homo sapiens, UniProt P04626); assay: Binding affinity to ERBB2 (unknown origin) assessed as dissociation constant by KINOMEscan analysis
Sequence of Receptor tyrosine-protein kinase erbB-2 (P04626 whole entry): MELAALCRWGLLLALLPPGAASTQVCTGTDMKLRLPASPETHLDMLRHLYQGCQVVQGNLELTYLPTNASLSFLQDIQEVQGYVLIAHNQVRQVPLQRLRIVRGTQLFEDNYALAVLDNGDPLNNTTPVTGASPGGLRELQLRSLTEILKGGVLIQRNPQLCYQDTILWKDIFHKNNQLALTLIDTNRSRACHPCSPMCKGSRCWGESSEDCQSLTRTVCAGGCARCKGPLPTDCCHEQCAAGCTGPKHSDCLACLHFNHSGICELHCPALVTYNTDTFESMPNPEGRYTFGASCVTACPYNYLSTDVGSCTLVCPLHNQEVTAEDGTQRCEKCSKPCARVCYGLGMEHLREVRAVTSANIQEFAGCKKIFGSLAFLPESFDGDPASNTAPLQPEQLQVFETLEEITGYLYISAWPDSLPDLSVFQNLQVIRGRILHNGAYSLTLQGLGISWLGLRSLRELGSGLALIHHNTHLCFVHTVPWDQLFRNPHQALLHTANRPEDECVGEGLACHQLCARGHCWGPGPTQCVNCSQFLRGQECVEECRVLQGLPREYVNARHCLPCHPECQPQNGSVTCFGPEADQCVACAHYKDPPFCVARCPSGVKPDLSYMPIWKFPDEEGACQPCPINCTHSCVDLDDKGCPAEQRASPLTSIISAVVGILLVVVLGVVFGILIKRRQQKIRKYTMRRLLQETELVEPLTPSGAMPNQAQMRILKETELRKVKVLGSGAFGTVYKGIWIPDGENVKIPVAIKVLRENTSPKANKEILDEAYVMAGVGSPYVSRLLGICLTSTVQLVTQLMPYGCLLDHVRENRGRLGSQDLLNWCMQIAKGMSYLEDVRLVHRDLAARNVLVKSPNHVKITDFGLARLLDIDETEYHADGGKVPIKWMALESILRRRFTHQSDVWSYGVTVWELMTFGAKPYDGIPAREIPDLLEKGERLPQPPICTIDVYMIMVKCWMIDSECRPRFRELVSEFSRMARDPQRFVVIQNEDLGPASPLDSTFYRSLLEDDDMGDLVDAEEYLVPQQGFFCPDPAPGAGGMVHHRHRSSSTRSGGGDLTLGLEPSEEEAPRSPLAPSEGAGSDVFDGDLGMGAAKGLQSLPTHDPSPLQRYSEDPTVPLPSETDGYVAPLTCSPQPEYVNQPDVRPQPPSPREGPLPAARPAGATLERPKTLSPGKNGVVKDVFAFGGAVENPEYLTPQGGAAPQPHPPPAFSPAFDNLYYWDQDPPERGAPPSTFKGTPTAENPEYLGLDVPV

[3] = Clearance in iv dosed Sprague-Dawley rat; format: ADME, organism-based; settings: in vivo
[4] = Inhibition of CD69 expression on CD19 positive B cells in anti-IgD stimulated human whole blood; format: functional, tissue-based; settings: CD19 positive B cell
[5] = Metabolic stability in human liver microsomes assessed as intrinsic clearance; format: ADME, Microsome; settings: read-out: CLH
[6] = Metabolic stability in rat liver microsomes assessed as intrinsic clearance; format: ADME, Microsome; settings: read-out: CLH
[7] = Plasma protein binding in human assessed as unbound fraction by rapid equilibrium dialysis method; format: ADME, cell-free
[8] = Plasma protein binding in rat assessed as unbound fraction by rapid equilibrium dialysis method; format: ADME, cell-free
[9] = biological target: Tyrosine-protein kinase Blk (Homo sapiens, UniProt P51451); assay: Binding affinity to BLK (unknown origin) assessed as dissociation constant by KINOMEscan analysis
[10] = biological target: T1, Tyrosine-protein kinase BTK; assay: Binding affinity to BTK (unknown origin) assessed as dissociation constant by KINOMEscan analysis
[11] = biological target: Epidermal growth factor receptor (Homo sapiens, UniProt P00533); assay: Binding affinity to EGFR (unknown origin) assessed as dissociation constant by KINOMEscan analysis
Sequence of Epidermal growth factor receptor (P00533 whole entry): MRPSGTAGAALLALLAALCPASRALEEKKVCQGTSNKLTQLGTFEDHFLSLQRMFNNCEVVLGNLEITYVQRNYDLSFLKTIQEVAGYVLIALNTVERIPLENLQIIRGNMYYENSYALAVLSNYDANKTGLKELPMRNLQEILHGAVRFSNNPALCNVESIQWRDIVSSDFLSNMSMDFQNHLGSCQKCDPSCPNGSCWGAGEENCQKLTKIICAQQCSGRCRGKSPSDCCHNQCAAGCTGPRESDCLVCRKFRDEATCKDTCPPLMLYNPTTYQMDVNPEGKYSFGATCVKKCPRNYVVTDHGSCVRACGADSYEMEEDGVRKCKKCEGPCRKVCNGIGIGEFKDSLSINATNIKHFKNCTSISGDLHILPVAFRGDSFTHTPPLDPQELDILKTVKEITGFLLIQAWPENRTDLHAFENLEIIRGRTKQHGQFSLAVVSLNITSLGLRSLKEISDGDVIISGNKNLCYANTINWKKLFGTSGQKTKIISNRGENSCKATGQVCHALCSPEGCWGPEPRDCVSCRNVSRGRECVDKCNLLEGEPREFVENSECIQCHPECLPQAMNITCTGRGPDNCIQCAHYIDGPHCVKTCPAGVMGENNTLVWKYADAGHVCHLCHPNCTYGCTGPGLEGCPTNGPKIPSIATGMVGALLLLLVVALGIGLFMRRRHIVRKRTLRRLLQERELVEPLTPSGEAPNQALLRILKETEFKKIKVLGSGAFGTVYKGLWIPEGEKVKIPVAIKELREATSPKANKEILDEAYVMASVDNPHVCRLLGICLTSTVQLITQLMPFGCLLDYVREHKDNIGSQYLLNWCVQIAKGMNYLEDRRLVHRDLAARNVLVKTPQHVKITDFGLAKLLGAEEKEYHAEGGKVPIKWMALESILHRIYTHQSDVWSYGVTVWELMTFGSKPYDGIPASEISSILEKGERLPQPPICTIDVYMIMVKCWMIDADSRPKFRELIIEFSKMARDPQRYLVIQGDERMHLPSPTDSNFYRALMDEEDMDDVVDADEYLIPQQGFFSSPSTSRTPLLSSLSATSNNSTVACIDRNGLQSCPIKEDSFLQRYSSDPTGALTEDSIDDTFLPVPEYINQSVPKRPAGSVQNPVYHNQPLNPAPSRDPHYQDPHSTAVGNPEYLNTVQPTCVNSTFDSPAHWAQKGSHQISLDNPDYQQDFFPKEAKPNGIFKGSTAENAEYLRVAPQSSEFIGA

[12] = biological target: T2, Tyrosine-protein kinase Tec (Homo sapiens, UniProt P42680); assay: Binding affinity to TEC (unknown origin) assessed as dissociation constant by KINOMEscan analysis
T2 sequence (P42680 whole entry): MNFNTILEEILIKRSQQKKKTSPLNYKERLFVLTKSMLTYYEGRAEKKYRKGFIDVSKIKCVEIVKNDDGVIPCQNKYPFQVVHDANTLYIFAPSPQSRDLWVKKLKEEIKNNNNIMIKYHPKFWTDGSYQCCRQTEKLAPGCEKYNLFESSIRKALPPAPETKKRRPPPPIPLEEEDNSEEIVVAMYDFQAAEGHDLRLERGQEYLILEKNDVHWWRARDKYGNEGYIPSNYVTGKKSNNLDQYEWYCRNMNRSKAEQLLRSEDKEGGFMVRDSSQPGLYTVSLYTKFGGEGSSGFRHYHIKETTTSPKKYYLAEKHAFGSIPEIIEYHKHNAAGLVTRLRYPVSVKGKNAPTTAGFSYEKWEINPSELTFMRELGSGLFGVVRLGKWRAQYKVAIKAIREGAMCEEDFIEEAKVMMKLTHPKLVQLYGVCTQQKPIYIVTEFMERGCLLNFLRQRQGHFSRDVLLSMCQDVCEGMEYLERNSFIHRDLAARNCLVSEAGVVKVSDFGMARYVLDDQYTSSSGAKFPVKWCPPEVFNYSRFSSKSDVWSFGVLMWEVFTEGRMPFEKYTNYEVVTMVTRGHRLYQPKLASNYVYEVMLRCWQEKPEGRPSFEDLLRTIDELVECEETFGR

[13] = biological target: T3, Tyrosine-protein kinase TXK (Homo sapiens, UniProt P42681); assay: Binding affinity to TXK (unknown origin) assessed as dissociation constant by KINOMEscan analysis
T3 sequence (P42681 whole entry): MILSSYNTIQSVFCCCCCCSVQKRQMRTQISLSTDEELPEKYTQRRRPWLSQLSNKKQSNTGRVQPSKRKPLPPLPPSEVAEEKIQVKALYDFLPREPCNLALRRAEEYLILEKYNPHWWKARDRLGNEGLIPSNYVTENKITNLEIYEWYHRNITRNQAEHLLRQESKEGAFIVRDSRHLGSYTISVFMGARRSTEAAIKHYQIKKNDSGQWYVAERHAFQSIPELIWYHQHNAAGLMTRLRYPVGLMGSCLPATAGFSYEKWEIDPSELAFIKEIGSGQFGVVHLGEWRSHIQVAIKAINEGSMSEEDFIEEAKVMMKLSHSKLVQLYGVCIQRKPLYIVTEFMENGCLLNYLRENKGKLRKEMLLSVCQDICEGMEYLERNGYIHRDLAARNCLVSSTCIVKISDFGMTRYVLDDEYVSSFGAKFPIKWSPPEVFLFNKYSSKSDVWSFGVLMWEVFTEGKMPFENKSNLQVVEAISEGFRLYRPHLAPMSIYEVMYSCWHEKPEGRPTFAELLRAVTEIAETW

[14] = biological target: T1, Tyrosine-protein kinase BTK; assay: Inhibition of BTK (unknown origin) at 1 uM by KINOMEscan assay relative to control
Cytochrome P450 2C9 = Cytochrome P450 2C9 (Homo sapiens, UniProt P11712); assay: Inhibition of human CYP2C9; format: ADME
Sequence of Cytochrome P450 2C9 (P11712 whole entry): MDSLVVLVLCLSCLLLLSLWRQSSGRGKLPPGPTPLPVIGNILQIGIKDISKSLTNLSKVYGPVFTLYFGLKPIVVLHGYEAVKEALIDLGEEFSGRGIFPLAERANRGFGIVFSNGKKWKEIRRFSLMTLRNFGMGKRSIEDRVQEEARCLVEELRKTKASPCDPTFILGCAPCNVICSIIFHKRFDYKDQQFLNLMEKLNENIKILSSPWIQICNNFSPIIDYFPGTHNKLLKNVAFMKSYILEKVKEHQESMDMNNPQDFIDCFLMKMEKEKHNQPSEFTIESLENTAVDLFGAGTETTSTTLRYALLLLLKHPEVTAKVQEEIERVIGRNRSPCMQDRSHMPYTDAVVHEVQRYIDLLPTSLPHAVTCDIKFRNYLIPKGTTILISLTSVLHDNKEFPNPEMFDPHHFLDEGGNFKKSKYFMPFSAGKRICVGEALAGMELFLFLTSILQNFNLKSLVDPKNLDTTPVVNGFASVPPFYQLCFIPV

Cytochrome P450 2D6 = Cytochrome P450 2D6 (Homo sapiens, UniProt P10635); assay: Inhibition of human CYP2D6; format: ADME
Sequence of Cytochrome P450 2D6 (P10635 whole entry): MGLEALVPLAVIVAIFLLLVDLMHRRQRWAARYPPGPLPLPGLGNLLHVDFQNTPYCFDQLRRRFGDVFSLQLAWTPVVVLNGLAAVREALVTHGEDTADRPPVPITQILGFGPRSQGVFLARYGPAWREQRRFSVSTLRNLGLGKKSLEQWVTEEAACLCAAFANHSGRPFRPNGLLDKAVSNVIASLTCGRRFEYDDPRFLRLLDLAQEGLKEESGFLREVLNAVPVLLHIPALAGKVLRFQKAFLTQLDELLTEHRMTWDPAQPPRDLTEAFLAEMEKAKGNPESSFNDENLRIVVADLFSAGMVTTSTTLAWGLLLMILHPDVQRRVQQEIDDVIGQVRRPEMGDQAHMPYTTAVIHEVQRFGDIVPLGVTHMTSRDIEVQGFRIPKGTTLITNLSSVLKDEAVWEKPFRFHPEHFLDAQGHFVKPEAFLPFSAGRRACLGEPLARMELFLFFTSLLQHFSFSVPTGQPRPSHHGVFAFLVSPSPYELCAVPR

Cytochrome P450 3A4 = Cytochrome P450 3A4 (Homo sapiens, UniProt P08684); assay: Inhibition of human CYP3A4; format: ADME
Sequence of Cytochrome P450 3A4 (P08684 whole entry): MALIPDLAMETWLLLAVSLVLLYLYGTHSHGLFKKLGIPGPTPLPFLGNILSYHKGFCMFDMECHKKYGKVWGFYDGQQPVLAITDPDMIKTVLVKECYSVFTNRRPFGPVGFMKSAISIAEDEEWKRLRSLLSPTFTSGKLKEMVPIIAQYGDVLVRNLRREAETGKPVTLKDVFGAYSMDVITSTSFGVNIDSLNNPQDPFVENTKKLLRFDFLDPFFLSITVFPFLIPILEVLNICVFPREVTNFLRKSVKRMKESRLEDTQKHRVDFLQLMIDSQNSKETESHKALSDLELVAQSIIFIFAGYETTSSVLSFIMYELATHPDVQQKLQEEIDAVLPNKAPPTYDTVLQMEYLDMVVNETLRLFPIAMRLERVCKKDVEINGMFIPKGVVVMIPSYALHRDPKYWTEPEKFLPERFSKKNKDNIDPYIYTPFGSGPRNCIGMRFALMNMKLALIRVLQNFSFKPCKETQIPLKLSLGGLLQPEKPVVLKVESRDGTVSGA

[15] = biological target: Voltage-gated inwardly rectifying potassium channel KCNH2 (Homo sapiens, UniProt Q12809); assay: Inhibition of hERG; format: toxicity
MDR1 = assay: Permeability across apical to basolateral side in dog MDCK-MDR1 cells; format: ADME, cell-based, Canis lupus familiaris; settings: read-out: permeability
[16] = Kinetic aqueous solubility of the compound at pH 6.8 by shake flask assay; format: physicochemical; settings: read-out: Kinetic_solubility
[17] = Kinetic aqueous solubility of the compound at pH 1.5 by shake flask assay; format: physicochemical; settings: read-out: Kinetic_solubility
[18] = Volume of distribution at steady state in iv dosed Sprague-Dawley rat; format: ADME, organism-based; settings: in vivo, read-out: Vdss

T1 sequence (Q06187 whole entry): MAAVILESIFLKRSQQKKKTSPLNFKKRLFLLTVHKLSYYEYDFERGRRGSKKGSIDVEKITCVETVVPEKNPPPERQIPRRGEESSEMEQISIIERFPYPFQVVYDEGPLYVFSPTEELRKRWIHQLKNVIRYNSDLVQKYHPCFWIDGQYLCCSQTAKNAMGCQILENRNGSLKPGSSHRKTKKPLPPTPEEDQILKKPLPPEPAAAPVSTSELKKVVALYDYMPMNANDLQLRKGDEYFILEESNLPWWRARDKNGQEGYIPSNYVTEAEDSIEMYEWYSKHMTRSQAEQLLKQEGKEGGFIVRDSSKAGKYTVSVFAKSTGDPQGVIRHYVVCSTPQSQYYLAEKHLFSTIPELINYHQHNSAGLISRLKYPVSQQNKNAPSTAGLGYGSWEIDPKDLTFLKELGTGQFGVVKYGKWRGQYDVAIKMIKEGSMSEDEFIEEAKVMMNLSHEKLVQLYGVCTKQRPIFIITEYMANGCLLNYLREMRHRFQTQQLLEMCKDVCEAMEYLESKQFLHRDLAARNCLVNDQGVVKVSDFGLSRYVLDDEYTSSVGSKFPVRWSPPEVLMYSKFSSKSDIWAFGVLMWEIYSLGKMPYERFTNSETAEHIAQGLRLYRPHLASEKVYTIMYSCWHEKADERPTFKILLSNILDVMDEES

Molecule `C=CC(=O)N(C)CCOc1c(N)ncnc1-c1ccc(CN2CCN(CC(C)C)CC2=O)c(C)c1` has an IC50 [1] of 0.00022 µM, a Kd [2] of 20 µM and a clearance [3] of 126 mL/min/kg. It also gave an IC50 [4] of 0.03 µM, a CLint scaled [5] of 66 mL/min/kg and a CLint scaled [6] of 154 mL/min/kg. For the same molecule, the fraction unbound [7] was 0.227, the fraction unbound [8] was 0.169 and the Kd [9] was 10 µM. It also gave a Kd [10] of 0.00091 µM, a Kd [11] of 30 µM and a Kd [12] of 0.24 µM. For the same molecule, the Kd [13] was 6.5 µM, the inhibition [14] was over 90% and the IC50 (Cytochrome P450 2C9) was over 10 µM. For the same molecule, the IC50 (Cytochrome P450 2D6) was over 10 µM, the IC50 (Cytochrome P450 3A4) was over 10 µM and the IC50 [15] was over 60 µM. For the same molecule, the Papp A→B (MDR1) was 0.32 ×10⁻⁶ cm/s, the solubility kinetic [16] was 49 µg/mL (≈ 102 µM) and the solubility kinetic [17] was 73 µg/mL (≈ 152 µM). The Vd [18] was 126 L/kg.
